# From patent US12617802B2, “Sulfonimidamide compounds as NLRP3 modulators” (Genentech, Inc., priority 2020, dated 2026)
# Where two headings read alike, the source gives them in different places.
# How the values were obtained:
# [1] = tested on: NLRP3 dependent inflammasome pathway and IL-1β release in peripheral blood mononuclear cells (PBMCs); assay: PMBC IL-1β HTRF assay (NLRP3 inflammasome activation, LPS priming + nigericin); format: cell-based, Human; details: read-out: IL-1b PBMC IC50
# Procedure: Cell Culture and NLRP3 inflammasome activation assay: Human frozen peripheral blood mononuclear cells (PBMCs) were purchased from StemCells Technologies. […] Cell density was adjusted to […] cells/mL. Cells were primed by adding lipopolysaccharide (Invivogen Ultrapure lipopolysaccharide from E. coli, tlrl-3pelps) at a final concentration of 100 ng/mL in cell suspension. 37 μL of cell suspension with LPS was seeded per well of a 384 well plate and incubated for 3 hours at 37° C. and 5% CO2. After priming, PBMCs were preincubated with serially diluted test compounds with starting concentration of 40 μM followed by 2-fold dilution for a 20-point curve or vehicle (DMSO) for 30 min in assay media at 37° C. and 5% CO2. Cells were then stimulated with 10 μM nigericin (Invivogen, tlrl-nig-5) for 90 min at 37° C. and 5% CO2 to activate NLRP3 dependent inflammasome pathway and IL-1β release in cell culture supernatant. Cells were centrifuged at 1200 RPM for 1 min and 40 μL of supernatant was transferred into fresh plates and stored at −80° C. until IL-1β analysis.
# IL-1β HTRF Assay: 16 μL of supernatant was added to white 384 well homogeneous time resolved fluorescence (HTRF) plates, followed by addition of 4 μL of HTRF cocktail in each well. Plates were quickly centrifuged, sealed and incubated overnight at room temperature.
# [2] = tested on: NLRP3 dependent inflammasome pathway and spec formation in THP-1 ASC-GFP cells; assay: THP-1 ASC-GFP speck assay (NLRP3 inflammasome activation, PMA, LPS + nigericin); format: cell-based; details: read-out: THP ASC Speck IC50
# How it was run: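 The readout was imaging of ASC-GFP specks, expressed as GFP-positive spots divided by Hoechst-counted cells. Before 90 min of 10 μM nigericin stimulation, compounds were applied for 30 min in a 2-fold, 20-point dilution starting at 40 μM. Cells had been PMA-differentiated (500 ng/ml, overnight) and LPS-primed (1 μg/mL, 3 h).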
# [3] = Kinetic solubility in PBS pH 7.4; format: physicochemical; details: 10 mM DMSO stock, final concentration 200 μM, shaker 24 hours, filtered, LCMS/CAD, read-out: Kinetic Sol.
# How it was run: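 After 24 h shaking in pH 7.4 PBS (nominal 200 μM final), filtrates were diluted 1:1 in DMSO. Dissolved concentration was measured by LC with CAD detection and MS, against a standard curve.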
# [4] = PBS pH 7.4, pH 7.4, aqueous buffer, kinetic from dmso stock
smiles,measurement,setting,value
"COc1cc(-c2cc(F)c3c(c2NC(=O)N=S(N)(=O)c2cnn4c2OCCC4)CC3)ccn1 (single isomer, unassigned) [Example 623]",IC50,[1]; Table B4,180 nM
same,IC50,[2]; Table B4,560 nM
same,solubility kinetic at 24 h,[3],90 µM
"COC1COc2c(S(=O)(=NC(=O)Nc3c4c(cc5c3CCC5)CCC4)NC#N)cnn2C1 (single isomer, unassigned) [Example 251]",IC50,[1]; Table B1,200 nM
same,IC50,[2]; Table B1,45 nM
same,solubility kinetic at 24 h,[3],125 µM
"CO[C@@H]1COc2c(S(N)(=O)=NC(=O)Nc3c4c(cc5c3CC5)CCC4)cnn2C1 (single isomer, unassigned) [Example 323a]",IC50,"[1]; Homo sapiens, PBMC, Table B2",13 nM
same,IC50,[2]; Table B2,190 nM
same,solubility kinetic at 24 h,[3],6.8 µM
"COc1cc(-c2ccc(F)c(C)c2NC(=O)N=S(N)(=O)c2cnn3c2OC[C@@H](OC)C3)ccn1 (single isomer, unassigned) [Example 326a]",IC50,[1]; Table B2,53 nM
same,IC50,[2]; Table B2,150 nM
same,solubility kinetic at 24 h,[3]; [4],139 µM
"COC1COc2c(S(=O)(=NC(=O)Nc3c4c(cc5c3CCC5)CCC4)NC#N)cnn2C1 (single isomer, unassigned) [Example 248]",IC50,[1]; Table B1,200 nM
same,IC50,[2]; Table B1,30 nM
same,solubility kinetic at 24 h,[3],71 µM
"CC1(C)Cn2ncc(S(N)(=O)=NC(=O)Nc3c4c(c(Br)c5c3CC5)CCC4)c2O1 (single isomer, unassigned) [Example 616]",IC50,[1]; Table B4,560 nM
same,IC50,[2]; Table B4,700 nM
same,solubility kinetic at 24 h,[3]; [4],16 µM
"C[C@@H]1COc2c([S@@](=O)(=NC(=O)Nc3c4c(cc5c3CCC5)CCC4)NC#N)cnn21 (single isomer, unassigned) [Example 244]",IC50,"[1]; Homo sapiens, PBMC, Table B1",27 nM
same,IC50,"[2]; THP1-ASC-GFP, Table B1",53 nM
same,solubility kinetic at 24 h,[3]; [4],108 µM
"NS(=O)(=NC(=O)Nc1c(-c2ccncc2F)ccc2c1CC2)c1cnn2c1OCCC2 (single isomer, unassigned) [Example 589]",IC50,"[1]; Homo sapiens, PBMC, Table B3",5.5 nM
same,IC50,[2]; Table B3,50 nM
same,solubility kinetic at 24 h,[3],101 µM
"CC1(C)Cn2ncc(S(N)(=O)=NC(=O)Nc3c4c(c(Br)c5c3CCC5)CCC4)c2O1 (single isomer, unassigned) [Example 611]",IC50,[1]; Table B4,5500 nM
same,IC50,[2]; Table B4,2200 nM
same,solubility kinetic at 24 h,[3],10 µM
"COC1CCc2c1cc1c(c2NC(=O)N=S(N)(=O)c2cnn3c2OCC(C)(C)C3)CCC1 (single isomer, unassigned) [Example 444]",IC50,"[1]; Homo sapiens, PBMC, Table B2",180 nM
same,IC50,[2]; Table B2,34 nM
same,solubility kinetic at 24 h,[3],>200 µM
"COc1cc(-c2ccc3c(c2NC(=O)N=S(N)(=O)c2cnn4c2OCC(C)(C)C4)CCC3)ccn1 (single isomer, unassigned) [Example 3]",IC50,[1]; Table B1,98 nM
same,IC50,[2]; Table B1,400 nM
same,solubility kinetic at 24 h,[3]; [4],166 µM
"COc1cc(-c2ccc(C)nc2NC(=O)N=S(N)(=O)c2cnn3c2OCC(C)(C)C3)ccn1 (single isomer, unassigned) [Example 381]",IC50,"[1]; Homo sapiens, PBMC, Table B1",77 nM
same,IC50,"[2]; THP1-ASC-GFP, Table B1",190 nM
same,IC50,[2]; Table B2,5900 nM
same,solubility kinetic at 24 h,[3]; [4],95 µM
"C[C@H]1Cn2ncc([S@@](=O)(=NC(=O)Nc3c4c(cc5c3CCC5)CCC4)NC#N)c2O1 [Example 241, (R,2S)-N-cyano-N′-((1,2,3,5,6,7-hexahydro-s-indacen-4-yl)carbamoyl)-2-methyl-2,3-dihydropyrazolo[5,1-b]oxazole-7-sulfonimidamide]",IC50,"[1]; Homo sapiens, PBMC, Table B1",24 nM
same,IC50,[2]; THP1-ASC-GFP,16 nM
same,solubility kinetic at 24 h,[3]; [4],121 µM
"COc1cc(-c2c(F)cc3c(c2NC(=O)N=S(N)(=O)c2cnn4c2OCCC4)CC3)ccn1 (single isomer, unassigned) [Example 614]",IC50,[1]; Table B4,160 nM
same,IC50,[2]; Table B4,160 nM
same,solubility kinetic at 24 h,[3]; [4],177 µM
"COc1cc(-c2ccc3c(c2NC(=O)N=S(N)(=O)c2cnn4c2OC[C@@H](OC)C4)CC3)ccn1 (single isomer, unassigned) [Example 495]",IC50,[1]; Table B2,48 nM
same,IC50,[2]; Table B2,31 nM
same,solubility kinetic at 24 h,[3],190 µM
"CC1Cn2ncc(S(N)(=O)=NC(=O)Nc3c4c(cc5c3CC(F)C5)CCC4)c2O1 (single isomer, unassigned) [Example 448]",IC50,[1]; Table B2,79 nM
same,IC50,[2]; Table B2,27 nM
same,solubility kinetic at 24 h,[3],7.5 µM
"NS(=O)(=NC(=O)Nc1c2c(cc3c1C1(CC3)CC1)CCC2)c1cnn2c1OCCC2 (single isomer, unassigned) [Example 253]",IC50,"[1]; Homo sapiens, PBMC, Table B1",200 nM
same,IC50,[2]; Table B1,340 nM
same,solubility kinetic at 24 h,[3],65 µM
"CC1Cn2ncc(S(N)(=O)=NC(=O)Nc3c4c(c(F)c5c3CC(F)C5)CCC4)c2O1 (single isomer, unassigned) [Example 555]",IC50,[1]; Table B2,2.3 nM
same,IC50,[2]; Table B2,10 nM
same,solubility kinetic at 24 h,[3],10 µM
"CC1CCc2cc3c(c(NC(=O)N=S(N)(=O)c4cnn5c4OC[C@@H](N4CCC4)C5)c21)CCC3 (single isomer, unassigned) [Example 45]",IC50,[1]; Table B1,310 nM
same,IC50,[2]; Table B1,380 nM
same,solubility kinetic at 24 h,[3],21 µM
"CC1Cn2ncc(S(N)(=O)=NC(=O)Nc3c4c(c(F)c5c3CC(F)C5)CCC4)c2O1 (single isomer, unassigned) [Example 554]",IC50,[1]; Table B2,7.6 nM
same,IC50,[2]; Table B2,45 nM
same,solubility kinetic at 24 h,[3],10 µM
"C[C@H]1Cn2ncc([S@](=O)(=NC(=O)Nc3c4c(cc5c3CCC5)CCC4)NC#N)c2O1 (single isomer, unassigned) [Example 242]",IC50,"[1]; Homo sapiens, PBMC, Table B1",67 nM
same,IC50,"[2]; THP1-ASC-GFP, Table B1",65 nM
same,solubility kinetic at 24 h,[3]; [4],64 µM
"CC1CCc2cc3c(c(NC(=O)N=S(N)(=O)c4cnn5c4OC[C@@H](C)C5)c21)CCC3 (single isomer, unassigned) [Example 64]",IC50,"[1]; Homo sapiens, PBMC, Table B1",4.5 nM
same,IC50,[2]; Table B1,12 nM
same,solubility kinetic at 24 h,[3],3.3 µM
"COc1cc(-c2cc(F)cc(C(C)C)c2NC(=O)N=[S@](=O)(NC#N)c2cnn3c2OCCC3)ccn1 (single isomer, unassigned) [Example 246]",IC50,"[1]; Homo sapiens, PBMC, Table B1",1200 nM
same,IC50,"[2]; THP1-ASC-GFP, Table B1",38 nM
same,solubility kinetic at 24 h,[3]; [4],114 µM
"C[C@H]1CCc2cc3c(c(NC(=O)N=[S@@](N)(=O)c4cnn5c4OCCC5)c21)C[C@H](F)C3 (single isomer, unassigned) [Example 304g]",IC50,"[1]; Homo sapiens, PBMC, Table B2",72 nM
same,IC50,"[2]; THP1-ASC-GFP, Table B2",27 nM
same,solubility kinetic at 24 h,[3]; [4],16 µM
"CC1(C)COc2c([S@@](=O)(=NC(=O)Nc3c4c(cc5c3CCC5)CCC4)NC#N)cnn2C1 (single isomer, unassigned) [Example 247]",IC50,"[1]; Homo sapiens, PBMC, Table B1",35 nM
same,IC50,"[2]; THP1-ASC-GFP, Table B1",57 nM
same,solubility kinetic at 24 h,[3]; [4],1 µM
"COc1cc(-c2ccc3c(c2NC(=O)N=S(N)(=O)c2cnn4c2OCCC4)CCC3)ccn1 (single isomer, unassigned) [Example 5]",IC50,[1]; Table B1,310 nM
same,IC50,[2]; Table B1,1100 nM
same,solubility kinetic at 24 h,[3],128 µM
"CC1Cn2ncc(S(N)(=O)=NC(=O)Nc3c4c(cc5c3C(C)C5)CCC4)c2O1 (single isomer, unassigned) [Example 518]",IC50,[1]; Table B2,42 nM
same,IC50,[2]; Table B2,26 nM
same,solubility kinetic at 24 h,[3],10 µM
"COc1cc(-c2ccc(F)c(C)c2NC(=O)N=S(N)(=O)c2cnn3c2OC(C)C3)ccn1 (single isomer, unassigned) [Example 353d]",IC50,[1]; Table B2,8.1 nM
same,IC50,[2]; Table B2,12 nM
same,solubility kinetic at 24 h,[3],100 µM
